Earlier results on 24 compounds are cited in PMC6151961 (Journal of Enzyme Inhibition and Medicinal Chemistry, 2018).

Structures are written as SMILES. Read-outs that look alike come from different tables or passages of the source.

This series deals with CA IX (Homo sapiens, UniProt Q16790). To be noted: cited from earlier work; for Ki: read-out: Ki.
[1] abbreviates: library compounds (IDs A…, B…) of Table S4, ref ChEMBL and BindingDB.
The mark [2] stands for this setting: library compounds (IDs A…, B…), values equal log10 of Ki in nM, ref ChEMBL and BindingDB.
[3] abbreviates: library compounds (IDs A…, B…), observed Ki towards CA IX, ref ChEMBL and BindingDB.
Setting [4] is: experimental pKi towards CA IX, library compounds, ref ChEMB database (ID A), BindingDB (ID B).
Setting [5] is: observed Ki towards CA IX, library compounds, ref ChEMB database (ID A), BindingDB (ID B).

Turning to `NS(=O)(=O)c1ccc2c(c1)S(=O)(=O)C[C@H]2OCc1ccccc1` [A0131], the Ki under setting [1] was 0.0028 µM. In addition, the “log10 of Ki in nM” value under setting [2] is 0.447.
Take `NS(=O)(=O)c1ccc(OC2=NON(O)[C@@H]2S(=O)(=O)c2ccccc2)cc1` [A0390]: the Ki under setting [3] was 0.0064 µM. In addition, the “log10 of Ki in nM” value under setting [2] was 0.806.
For the compound `COc1ccc2c(c1)CCN(S(N)(=O)=O)[C@H]2c1ccc(S(N)(=O)=O)cc1` [A0401], the “log10 of Ki in nM” value is recorded as 0.813 and the Ki is 0.0065 µM.
In the case of `COc1ccc2c(c1)CCN(S(N)(=O)=O)[C@H]2c1ccc(C#N)cc1` [A0427], the Ki under setting [1] was 0.007 µM. In addition, under setting [2], the “log10 of Ki in nM” value is given as 0.845.
Turning to `NS(=O)(=O)c1ccc([C@H]2c3ccc(O)cc3CCN2S(N)(=O)=O)cc1` [A0504, reference compound], the “log10 of Ki in nM” value is given as 0.898 and the Ki is 0.0079 µM.
As for `O=S(=O)(NO)N[C@H]1C=C[C@H](O)[C@@H](CO)O1` [A0589], the “log10 of Ki in nM” value is recorded as 0.954 and the Ki was 0.009 µM.
As to `COc1ccc2c(c1)CCN(S(N)(=O)=O)[C@H]2c1ccc(N)cc1` [A0718], the Ki under setting [1] was 0.012 µM. Under setting [2], the “log10 of Ki in nM” value is 1.079.
Take `COc1ccc2c(c1)CCN[C@H]2c1ccc(S(N)(=O)=O)cc1` [A0785]: the “log10 of Ki in nM” value was 1.188 and the Ki was 0.0154 µM.
In the case of `CC[C@@H](Sc1nc(-c2cccc(OC)c2)c(C#N)c(=O)[nH]1)C(=O)Nc1ccc(S(N)(=O)=O)cc1` [A0953], the “log10 of Ki in nM” value under setting [2] is recorded as 1.380. For the same compound, the Ki (observed Ki of library compounds (IDs A…, B…), ref ChEMBL and BindingDB) was 0.024 µM.
As for `NS(=O)(=O)c1ccc(CC/N=C\c2ccc(-c3ccccn3)cc2)cc1` [A1025], the “log10 of Ki in nM” value under setting [4] was 1.446. In addition, under setting [5], the Ki was 0.0279 µM.
Take `CC1(C)CC(NC(=S)Nc2ccc(S(N)(=O)=O)cc2)CC(C)(C)N1O` [A1198]: the inhibitory constant (Ki) under setting [3] is 0.041 µM. Moreover, the “log10 of Ki in nM” value under setting [2] is reported as 1.613.
For the compound `CCOc1ccc2c(c1)CCN(S(N)(=O)=O)[C@H]2c1ccc(S(N)(=O)=O)cc1` [A1289], the “log10 of Ki in nM” value is 1.717 and the Ki was 0.0521 µM.
On to `NS(=O)(=O)c1ccc(N2C(=O)CS[C@@H]2c2cccc(F)c2)cc1` [A1295], for which, under setting [3], the Ki was 0.0531 µM. In addition, the “log10 of Ki in nM” value under setting [2] is listed as 1.725.
With `NS(=O)(=O)c1ccc([C@H]2C(Oc3ccccc3)=NON2O)cc1` [A1359], the Ki under setting [3] is 0.0639 µM. Also, under setting [2], the “log10 of Ki in nM” value is 1.806.
On to `CC(=O)N1N=C(c2ccc(C)cc2)C[C@H]1c1c(C)nn(-c2ccc(S(N)(=O)=O)cc2)c1Cl` [A1383], for which the Ki under setting [3] was 0.0671 µM. Besides, the “log10 of Ki in nM” value under setting [2] was 1.827.
With `COc1ccc2c(c1)CCN(S(N)(=O)=O)[C@H]2c1ccccc1` [A1457], the Ki under setting [3] was 0.078 µM. Moreover, under setting [2], the “log10 of Ki in nM” value is reported as 1.892.
As for `CC(C)OS(N)(=O)=O` [A2163], the Ki was 1 µM.
Consider `O=C(Cc1ccccc1Br)Oc1ccc2c(c1)OS(=O)(=O)CC2` [A2452], for which the “log10 of Ki in nM” value under setting [4] is on record as 4.000. Moreover, the Ki under setting [5] was 10 µM.
Turning to `CC/C(=N/Nc1ccc([N+](=O)[O-])cc1)Sc1cc(Cl)c(C)cc1S(N)(=O)=O` [A2453], the Ki under setting [3] was 10 µM. The “log10 of Ki in nM” value under setting [2] is 4.000.
Take `Cc1cc(S(N)(=O)=O)c(S/C(=N\Nc2ccc([N+](=O)[O-])cc2)c2ccccc2)cc1Cl` [A2454]: the Ki under setting [1] is 10 µM. Under setting [2], the “log10 of Ki in nM” value was 4.000.
As to `CC(=O)CN1C(=O)C=C(C)OS1(=O)=O` [A2477], the Ki under setting [3] is 20 µM. Besides, under setting [2], the “log10 of Ki in nM” value is 4.301.
With `CCCN(CCC)S(=O)(=O)c1ccc(C(=O)N[C@H](CO)C(N)=O)cc1` [B0020], the “log10 of Ki in nM” value is listed as 0.415 and the Ki is 0.0026 µM.
For `N#C/C(=C/C=C\c1ccccc1)C(=O)Nc1ccc(S(N)(=O)=O)cc1` [B0085], the “log10 of Ki in nM” value (library compounds (IDs A..., B...), values equal log10 of Ki in nM, ref ChEMBL, BindingDB) is given as 0.690. Moreover, under “observed Ki of library compounds (IDs A..., B...), ref ChEMBL, BindingDB”, the Ki was 0.0049 µM.
With `CC(=O)OC[C@H]1O[C@@H](n2cc(-c3ccc(S(N)(=O)=O)cc3)nn2)[C@@H](OC(C)=O)[C@@H](OC(C)=O)[C@@H]1OC(C)=O` [B0096], the “log10 of Ki in nM” value is reported as 0.699 and the Ki was 0.005 µM.
